Results from patent publication US20050063999A1, “Use of at least one (dihydro)jasmonic acid derivative as a desquamating agent” (priority 2003, published 2005).

Tested on: stratum corneum
Experiment: Desquamating power: count of corneocytes released from isolated stratum corneum discs after incubation with the test compound
Type: cell-based
Conditions: 1 % by weight compound in PBS buffer + 0.1% Triton X100, pH 7.4, 37° C., 24 hours, with stirring
Method: The desquamating power of the compound prepared in Example 1 above was studied. This test comprised counting the corneocytes released after incubating batches of stratum corneum, isolated by trypsin/heat from plastic surgery operations, in the presence of the test compound.
Discs of stratum corneum 4 mm in diameter were cut out with a punch and placed at the bottom of a 96-well plate. Two different stratum corneum samples were used.
A solution was prepared comprising 1 % by weight of compound of Example 1 in a PBS buffer supplemented at 0.1% with Triton X100. The pH of the solution was readjusted to 7.4.
50 microliters of test solution or of control solution (PBS buffer supplemented at 0.1% with Triton X100) were added to each well. The experiment was repeated three times. The mixture was incubated at 37° C., with stirring, for 24 hours.
10 microliters of solution were then collected and placed in a Mallassez cell. The corneocytes released were counted under a microscope.
The following results were obtained, which express the mean, for the three trials, of the number of corneocytes released per microliter. The corneocyte fragments were not counted.

CCCCCC1C(CC(=O)O)CCC1OC (racemic) [Compound of Example 1]
number of corneocytes released per microliter, mean (3 trials per sample), Sample No. 1 (stratum corneum Sample No. 1, control 6 ± 1): 17 ± 6 per microliter
number of corneocytes released per microliter, mean (3 trials per sample), Sample No. 2 (stratum corneum Sample No. 2, control 6 ± 2): 16 ± 6 per microliter
